We go through two molecules from ChEMBL document CHEMBL3817797, “Crystal Structure of Human E-Cadherin-EC1EC2 in Complex with a Peptidomimetic Competitive Inhibitor of Cadherin Homophilic Interaction” (J Med Chem, 2016).

A word on the inhibition: it is the drop in the measured response relative to a control, in per cent.

Experiment [1] concerns the target T1, Cadherin-2 (Homo sapiens) (UniProt P19022).
T1 sequence (whole entry): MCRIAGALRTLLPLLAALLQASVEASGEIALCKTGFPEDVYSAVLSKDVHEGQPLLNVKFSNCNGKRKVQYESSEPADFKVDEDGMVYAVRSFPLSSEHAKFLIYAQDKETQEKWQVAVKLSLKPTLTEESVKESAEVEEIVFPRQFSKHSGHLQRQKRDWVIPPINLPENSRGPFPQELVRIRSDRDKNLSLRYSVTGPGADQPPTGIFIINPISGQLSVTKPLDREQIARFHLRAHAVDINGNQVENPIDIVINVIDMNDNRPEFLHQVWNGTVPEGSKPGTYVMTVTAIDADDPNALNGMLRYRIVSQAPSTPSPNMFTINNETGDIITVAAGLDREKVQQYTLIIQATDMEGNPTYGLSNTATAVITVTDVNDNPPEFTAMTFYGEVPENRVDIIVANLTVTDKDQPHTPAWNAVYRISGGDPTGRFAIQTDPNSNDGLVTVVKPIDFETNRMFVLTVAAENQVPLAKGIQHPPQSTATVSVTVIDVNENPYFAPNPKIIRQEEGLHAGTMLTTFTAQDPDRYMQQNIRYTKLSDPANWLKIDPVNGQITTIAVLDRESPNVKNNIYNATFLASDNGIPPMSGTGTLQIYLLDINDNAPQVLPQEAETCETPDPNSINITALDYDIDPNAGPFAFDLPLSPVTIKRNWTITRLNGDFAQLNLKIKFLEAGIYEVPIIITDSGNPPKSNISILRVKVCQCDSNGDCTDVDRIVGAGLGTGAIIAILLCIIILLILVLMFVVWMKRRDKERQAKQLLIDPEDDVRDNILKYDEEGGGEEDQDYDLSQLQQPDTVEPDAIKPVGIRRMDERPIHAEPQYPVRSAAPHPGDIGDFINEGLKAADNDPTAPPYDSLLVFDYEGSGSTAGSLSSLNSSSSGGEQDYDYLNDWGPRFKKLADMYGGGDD
Put plainly: Inhibition of N-cadherin-Fc chimeric protein binding to N-cadherin in human SKOV3 cells at 2 mM preincubated for 1 hr followed by N-cadherin-Fc addition measured after 2 hrs by ELISA relative to control. The experiment is classed as cell-based. The settings on record: SK-OV-3.

In experiment [2] the target is T1, Cadherin-2 (Homo sapiens). Put plainly: Inhibition of recombinant N-cadherin-Fc chimeric protein (unknown origin) homodimerization at 10 uM preincubated for 30 mins followed by N-cadherin-Fc addition by surface plasmon resonance analysis relative to control. (Surface plasmon resonance follows binding to a sensor surface in real time, without labels.)
Experiment [3] concerns the target T2, Cadherin-1 (Homo sapiens) (UniProt P12830).
T2 sequence (whole entry): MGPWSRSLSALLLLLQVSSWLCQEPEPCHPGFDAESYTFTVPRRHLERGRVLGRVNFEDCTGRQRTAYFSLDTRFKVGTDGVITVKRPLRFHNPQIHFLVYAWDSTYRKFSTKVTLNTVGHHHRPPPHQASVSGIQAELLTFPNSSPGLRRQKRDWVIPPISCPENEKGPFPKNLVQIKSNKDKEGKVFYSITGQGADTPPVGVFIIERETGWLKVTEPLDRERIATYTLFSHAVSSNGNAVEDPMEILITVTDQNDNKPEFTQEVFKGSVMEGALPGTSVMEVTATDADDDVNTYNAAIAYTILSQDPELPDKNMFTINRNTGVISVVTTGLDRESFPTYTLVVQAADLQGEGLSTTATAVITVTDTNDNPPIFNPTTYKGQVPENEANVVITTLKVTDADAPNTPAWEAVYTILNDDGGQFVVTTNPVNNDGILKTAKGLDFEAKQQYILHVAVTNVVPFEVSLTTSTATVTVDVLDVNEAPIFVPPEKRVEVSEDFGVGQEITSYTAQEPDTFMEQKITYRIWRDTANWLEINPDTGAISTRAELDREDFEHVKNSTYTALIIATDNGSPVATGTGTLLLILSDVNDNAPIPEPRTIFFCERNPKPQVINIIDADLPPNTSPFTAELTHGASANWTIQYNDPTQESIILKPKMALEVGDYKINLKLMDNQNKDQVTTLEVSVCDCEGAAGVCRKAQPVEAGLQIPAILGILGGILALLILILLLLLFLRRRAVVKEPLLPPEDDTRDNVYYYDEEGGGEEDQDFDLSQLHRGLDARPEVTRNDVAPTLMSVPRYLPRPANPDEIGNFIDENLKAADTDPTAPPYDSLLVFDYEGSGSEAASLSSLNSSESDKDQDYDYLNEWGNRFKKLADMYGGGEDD
Kind of experiment: Inhibition of E-cadherin-Fc chimeric protein binding to E-cadherin in human OAW42 cells at 2 mM preincubated for 1 hr followed by E-cadherin-Fc addition measured after 2 hrs by ELISA relative to control. The experiment is classed as cell-based. The following applies: OAW-42. For orientation: In an ELISA, binding on a coated surface is turned into a signal by an enzyme label.

In experiment [4] the target is T1, Cadherin-2 (Homo sapiens). Kind of experiment: Inhibition of N-cadherin-Fc chimeric protein binding to N-cadherin in human SKOV3 cells at 1 mM preincubated for 1 hr followed by N-cadherin-Fc addition measured after 2 hrs by ELISA relative to control. The settings on record: SK-OV-3. Format: cell-based.
For experiment [5], the target named is T2, Cadherin-1 (Homo sapiens). Put plainly: Binding affinity to E-cadherin in human OAW42 cells assessed as effect on PI3K/Akt signalling activation by measuring phosphorylation of Akt at Ser-473 residue at 1 to 2 mM by immunoblot analysis. The experiment is classed as cell-based. The settings on record: OAW-42. A general note: In western blotting, separated proteins are transferred to a membrane and probed.

Each structure is given as a SMILES string. Calls of active or inactive are those of the source. The rule behind the calls is not given here.

For `CC(=O)N[C@H]1CSSC[C@@H](C(N)=O)NC(=O)[C@H](C(C)C)NC(=O)[C@H](C)NC(=O)[C@H](Cc2c[nH]cn2)NC1=O`, the values for the inhibition in experiment [1], in experiment [2] and in experiment [3] were 50%, 28% and 30%, respectively. In addition, the inhibition result in experiment [4] is “inactive”.

`CC[C@H](C)[C@H](NC(=O)C[C@@H]1NC(=O)[C@H](CNC(=O)[C@@H](N)CC(=O)O)N(Cc2ccccc2)C1=O)C(=O)NC(C)(C)C`: the inhibition was found to be 84% in experiment [1], 55% in experiment [2], 50% in experiment [3] and 65% in experiment [4]. The result in experiment [5] was Active.
